Data taken from patent US11000511B2, “Chemical compounds as antibiotics” (priority 2017, dated 2021).

Tests used:
[1] = molecular target: T1, LasB elastase activity in dialysed supernatant from P. aeruginosa strain PA01 (Pseudomonas aeruginosa, UniProt P14756); assay: Elastin Congo Red assay to determine % inhibition (Assay 1); format: biochemical; details: for inhibition at 50 µM: read-out: Elastin hydrolysis % inhibition @ 50/25 μM inhibitor concentration Assay 1
T1 construct: uses as source of enzyme dialysed supernatant from P. aeruginosa; endogenous in cells; host or cells: P. aeruginosa strain PA01 culture supernatant, filtered and dialysed
T1 sequence (P14756 198-498): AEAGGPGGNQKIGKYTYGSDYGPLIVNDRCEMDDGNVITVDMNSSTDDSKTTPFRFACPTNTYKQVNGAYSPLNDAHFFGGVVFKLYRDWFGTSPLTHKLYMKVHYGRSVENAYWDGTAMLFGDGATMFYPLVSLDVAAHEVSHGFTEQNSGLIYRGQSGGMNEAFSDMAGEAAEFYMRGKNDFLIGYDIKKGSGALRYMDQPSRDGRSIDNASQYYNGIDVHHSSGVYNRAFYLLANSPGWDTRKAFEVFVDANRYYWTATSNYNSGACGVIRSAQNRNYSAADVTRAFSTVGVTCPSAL
Outline: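 Enzyme source: PA01 culture supernatant (19 h growth), filtered and dialysed into 50 mM Tris pH 7.4, 2.5 mM CaCl2. Mixed 1:1 with Elastin Congo Red (20 mg/mL) plus 0.01% Triton X-100 and compound (routinely 50 and 25 μM), 24 h at 37 °C shaking. Dye release at OD520 gives % inhibition versus DMSO.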

[2] = molecular target: T2, purified LasB protein from P. aeruginosa (Pseudomonas aeruginosa, UniProt P14756); assay: Fluorometric assay to determine Ki (Assay 1); format: biochemical; details: Ki (μM) Assay 1, purified LasB, substrate Abz-Ala-Gly-Leu-Ala-p-Nitro-Benzyl-Amide 250 μM, Ki calculated from IC50; inhibitor 0.006 to 200 μM
T2 construct: purchased Merck or Charles River Laboratories
T2 sequence (P14756 198-498): as above
Outline: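 Purified LasB (10 to 140 ng/ml) with 250 μM Abz-Ala-Gly-Leu-Ala-p-nitrobenzylamide in 50 mM Tris-HCl pH 7.4, 2.5 mM CaCl2, 0.01% Triton X100; hydrolysis read by fluorescence (Ex 340/Em 415 nm) over 30 min at 37° C. Inhibitor 2-fold series, 0.006–200 μM (Assay 1) or 0.0016–200 μM (Assay 2); IC50 converted to Ki via Ki=IC50/(1+[S]/Km), Km=214 μM.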

Compound | inhibition at 50 µM [1] [%] | Ki [2] [µM] | Elastin hydrolysis % inhibition @ 50/25 μM inhibitor concentration Assay 1 ([1]; 50 μM inhibitor concentration, elastin congo red, 24 hours, OD520)
CN(C)C1CN(c2ccc3nc(CNC(=O)C4(CC(=O)O)Cc5ccccc5C4)sc3c2)C1 [Example 67, 2-(2-(((6-(3-(dimethylamino)azetidin-1-yl)benzo[d]thiazol-2-yl)methyl)carbamoyl)-2,3-dihydro-1H-inden-2-yl)acetic acid] | > 60 | 0.3 to 2 | –
CC(NC(=O)C1(CC(=O)O)Cc2ccccc2C1)c1cc2ccccc2o1 (single isomer, unassigned) [Example 59, 2-[2-[[(1S*)-1-(benzofuran-2-yl)ethyl]carbamoyl]indan-2-yl]acetic acid] | – | 0.3 to 2 | B (30 to 60% inhibition)
Cn1c(CNC(=O)C2(CC(=O)O)Cc3ccccc3C2)nc2ccccc21 [Example 56, 2-(2-(((1-methyl-1H-benzo[d]imidazol-2-yl)methyl)carbamoyl)-2,3-dihydro-1H-inden-2-yl)acetic acid] | 30 to 60 | 0.3 to 2 | –
Cn1c(CNC(=O)C2(CC(=O)O)Cc3ccccc3C2)cc2ccccc21 [Example 9, 2-[2-[(1-methylindol-2-yl)methylcarbamoyl]indan-2-yl]acetic acid] | > 60 | < 0.3 | –
C[N+](C)(C)C[C@H]1C[C@@H](c2ccc3nc(CNC(=O)C4(CC(=O)[O-])Cc5ccccc5C4)sc3c2)C1 [Example 94, 2-[2-[[6-[(1s,3s)-3-[(trimethylammonio)methyl]cyclobutyl]-1,3-benzothiazol-2-yl]methylcarbamoyl]indan-2-yl]acetate] | > 60 | < 0.3 | –
CN(C)CCOc1ccc2sc(CNC(=O)C3(CC(=O)O)Cc4ccccc4C3)nc2c1 [Example 112, 2-[2-[[5-[2-(dimethylamino)ethoxy]-1,3-benzothiazol-2-yl]methylcarbamoyl]indan-2-yl]acetic acid] | > 60 | < 0.3 | –
NCCCc1ccc2sc(CNC(=O)C3(CC(=O)O)Cc4ccccc4C3)nc2c1 [Example 40, 2-[2-[[5-(3-aminopropyl)-1,3-benzothiazol-2-yl]methylcarbamoyl]indan-2-yl]acetic acid] | > 60 | < 0.3 | –
O=C(O)CC1(C(=O)NCc2nc3cc(O)ccc3s2)Cc2ccccc2C1 [Example 130, 2-[2-[(5-hydroxy-1,3-benzothiazol-2-yl)methylcarbamoyl]indan-2-yl]acetic acid] | > 60 | < 0.3 | –
N[C@@H]1CCN(c2ccc3sc(CNC(=O)C4(CC(=O)O)Cc5ccccc5C4)nc3c2)C1 [Example 104, 2-[2-[[5-[(3R)-3-aminopyrrolidin-1-yl]-1,3-benzothiazol-2-yl]methylcarbamoyl]indan-2-yl]acetic acid] | > 60 | 0.3 to 2 | –
O=C(O)CC1(C(=O)NCCc2ccc(O)cc2)Cc2ccccc2C1 [Example 13, 2-[2-[2-(4-hydroxyphenyl)ethylcarbamoyl]indan-2-yl]acetic acid] | 30 to 60 | 2 to 10 | –
NCCC1CN(c2ccc3nc(CNC(=O)C4(CC(=O)O)Cc5ccccc5C4)sc3c2)C1 [Example 70, 2-[2-[[6-[3-(2-aminoethyl)azetidin-1-yl]-1,3-benzothiazol-2-yl]methylcarbamoyl]indan-2-yl]acetic acid] | > 60 | < 0.3 | –
O=C(O)CC1(C(=O)NCCc2cc3ccccc3o2)Cc2ccccc2C1 [Example 19, 2-[2-[2-(benzofuran-2-yl)ethylcarbamoyl]indan-2-yl]acetic acid] | 15 to 30 | 2 to 10 | –
O=C(O)CC1(C(=O)NCc2coc3ccccc23)Cc2ccccc2C1 [Example 57, 2-[2-(benzofuran-3-ylmethylcarbamoyl)indan-2-yl]acetic acid] | 30 to 60 | 0.3 to 2 | –
NCCCc1ccc2nc(CNC(=O)C3(CC(=O)O)Cc4ccccc4C3)sc2c1 [Example 38, 2-[2-[[6-(3-aminopropyl)-1,3-benzothiazol-2-yl]methylcarbamoyl]indan-2-yl]acetic acid] | > 60 | 0.3 to 2 | –
CN(C)CC#Cc1ccc2sc(CNC(=O)C3(CC(=O)O)Cc4ccccc4C3)nc2c1 [Example 88, 2-[2-[[5-[3-(dimethylamino)prop-1-ynyl]-1,3-benzothiazol-2-yl]methylcarbamoyl]indan-2-yl]acetic acid] | > 60 | < 0.3 | –
Cc1oc2ccccc2c1CNC(=O)C1(CC(=O)O)Cc2ccccc2C1 [Example 20, 2-[2-[(2-methylbenzofuran-3-yl)methylcarbamoyl]indan-2-yl]acetic acid] | 30 to 60 | 2 to 10 | –

Compound | inhibition at 50 µM [1] [%] | Ki [2] [µM] | Elastin hydrolysis % inhibition @ 50/25 μM inhibitor concentration Assay 1 ([1]; 50 μM inhibitor concentration, elastin congo red, 24 hours, OD520)
C[N+](C)(C)CCNC(=O)[C@H](Cc1c[nH]c2ccccc12)NC(=O)C1(CC(=O)O)Cc2ccccc2C1 [Example 46, (2-{[(1S)-2-(1H-indol-3-yl)-1-{[2-(trimethylammonio)ethyl]carbamoyl}ethyl]carbamoyl}-1,3-dihydroinden-2-yl)acetate] | 30 to 60 | 2 to 10 | –
O=C(O)CC1(C(=O)NCCc2c[nH]c3ccccc23)Cc2ccccc2C1 [Example 14, 2-[2-[2-(1H-indol-3-yl)ethylcarbamoyl]indan-2-yl]acetic acid] | 30 to 60 | < 0.3 | –
COC(=O)[C@H](Cc1c[nH]c2ccccc12)NC(=O)C1(CC(=O)O)Cc2ccccc2C1 [Example 53, (S)-2-(2-((3-(1H-indol-3-yl)-1-methoxy-1-oxopropan-2-yl)carbamoyl)-2,3-dihydro-1H-inden-2-yl)acetic acid] | > 60 | 0.3 to 2 | –
Cc1nnc([C@H](Cc2c[nH]c3ccccc23)NC(=O)C2(CC(=O)O)Cc3ccccc3C2)o1 [Example 117, (S)-2-(2-((2-(1H-indol-3-yl)-1-(5-methyl-1,3,4-oxadiazol-2-yl)ethyl)carbamoyl)-2,3-dihydro-1H-inden-2-yl)acetic acid] | > 60 | 0.3 to 2 | –
N[C@H]1CCN(c2ccc3sc(CNC(=O)C4(CC(=O)O)Cc5ccccc5C4)nc3c2)C1 [Example 103, 2-[2-[[5-[(3 S)-3-aminopyrrolidin-1-yl]-1,3-benzothiazol-2-yl]methylcarbamoyl]indan-2-yl]acetic acid] | > 60 | 0.3 to 2 | –
NC1CN(c2ccc3nc(CNC(=O)C4(CC(=O)O)Cc5ccccc5C4)sc3c2)C1 [Example 100, 2-[2-[[6-(3-aminoazetidin-1-yl)-1,3-benzothiazol-2-yl]methylcarbamoyl]indan-2-yl]acetic acid] | > 60 | < 0.3 | –
CN(C)C[C@H]1C[C@@H](c2ccc3nc(CNC(=O)C4(CC(=O)O)Cc5ccccc5C4)sc3c2)C1 [Example 93, 2-(2-(((6-((1s,3s)-3-((dimethylamino)methyl)cyclobutyl)benzo[d]thiazol-2-yl)methyl)carbamoyl)-2,3-dihydro-1H-inden-2-yl)acetic acid] | > 60 | < 0.3 | –
CN1CCN(c2ccc3sc(CNC(=O)C4(CC(=O)O)Cc5ccccc5C4)nc3c2)CC1 [Example 106, 2-[2-[[5-(4-methylpiperazin-1-yl)-1,3-benzothiazol-2-yl]methylcarbamoyl]indan-2-yl]acetic acid] | > 60 | < 0.3 | –
CC(NC(=O)C1(CC(=O)O)Cc2ccccc2C1)c1cc2ccccc2o1 (single isomer, unassigned) [Example 58, 2-[2-[[(1R*)-1-(benzofuran-2-yl)ethyl]carbamoyl]indan-2-yl]acetic acid] | 30 to 60 | 2 to 10 | –
CN(C)CCCc1ccc2nc(CNC(=O)C3(CC(=O)O)Cc4ccccc4C3)sc2c1 [Example 36, 2-[2-[[6-[3-(dimethylamino)propyl]-1,3-benzothiazol-2-yl]methylcarbamoyl]indan-2-yl]acetic acid] | > 60 | < 0.3 | –
C[N+](C)(C)CCOc1ccc2sc(CNC(=O)C3(CC(=O)[O-])Cc4ccccc4C3)nc2c1 [Example 113, 2-[2-[[5-[2-(trimethylammonio)ethoxy]-1,3-benzothiazol-2-yl]methylcarbamoyl]indan-2-yl]acetate] | > 60 | 0.3 to 2 | –
O=C(O)CC1(C(=O)NCc2c[nH]c3ccccc23)Cc2ccccc2C1 [Example 26, 2-[2-(1H-indol-3-ylmethylcarbamoyl)indan-2-yl]acetic acid] | 30 to 60 | 2 to 10 | –
NCC1CN(c2ccc3nc(CNC(=O)C4(CC(=O)O)Cc5ccccc5C4)sc3c2)C1 [Example 99, 2-[2-[[6-[3-(aminomethyl)azetidin-1-yl]-1,3-benzothiazol-2-yl]methylcarbamoyl]indan-2-yl]acetic acid] | > 60 | < 0.3 | –
O=C(O)CC1(C(=O)NCc2cc3ccccc3[nH]2)Cc2ccccc2C1 [Example 29, 2-[2-(1H-indol-2-ylmethylcarbamoyl)indan-2-yl]acetic acid] | 30 to 60 | < 0.3 | –
O=C(O)CC1(C(=O)N[C@@H](Cc2ccc(O)cc2)C(=O)O)Cc2ccccc2C1 [Example 49, (2-(carboxymethyl)-2,3-dihydro-1H-indene-2-carbonyl)-L-tyrosine] | > 60 | 0.3 to 2 | –
